Data published in ChEMBL document CHEMBL1938240, “Enzymatic transformation of caffeic acid with enhanced cyclooxygenase-2 inhibitory activity” (Bioorg Med Chem Lett, 2012).

Target: T1, Prostaglandin G/H synthase 2 (Homo sapiens, UniProt P35354)
T1 sequence (P35354 whole entry): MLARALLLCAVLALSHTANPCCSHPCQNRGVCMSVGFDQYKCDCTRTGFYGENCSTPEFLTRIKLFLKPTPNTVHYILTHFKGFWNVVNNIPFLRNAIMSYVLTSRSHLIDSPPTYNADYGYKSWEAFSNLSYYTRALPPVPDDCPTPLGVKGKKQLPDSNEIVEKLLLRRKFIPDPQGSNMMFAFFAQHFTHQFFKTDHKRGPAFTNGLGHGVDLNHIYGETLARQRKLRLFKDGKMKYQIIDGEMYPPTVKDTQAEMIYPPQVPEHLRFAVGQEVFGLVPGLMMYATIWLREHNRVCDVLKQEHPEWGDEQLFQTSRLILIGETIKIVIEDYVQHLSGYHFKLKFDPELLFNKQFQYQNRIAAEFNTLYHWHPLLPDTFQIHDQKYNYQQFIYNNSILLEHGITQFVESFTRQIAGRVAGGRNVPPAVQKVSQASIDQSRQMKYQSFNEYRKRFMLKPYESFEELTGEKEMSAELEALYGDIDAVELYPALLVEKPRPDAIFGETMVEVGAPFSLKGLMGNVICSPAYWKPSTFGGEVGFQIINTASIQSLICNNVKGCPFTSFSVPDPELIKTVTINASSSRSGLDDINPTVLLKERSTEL
Experiment: Inhibition of COX2 assessed as inhibition of PGE2 production using arachidonic acid as substrate after 10 mins by ELISA

IC50 | SMILES
9.8 µM | O=C(O)/C=C/C12C=C(O)C(=O)C=C1C(=O)C1=Cc3cc(O)c(O)cc3O[C@@H](c3ccc(O)c(O)c3)[C@@H]12 (relative stereo)
52.6 µM | O=C(O)/C=C/c1ccc2c(c1)O[C@@H](C(=O)O)[C@@H](c1ccc(O)c(O)c1)O2 (relative stereo)
7.5 µM | O=C(O)/C=C/c1ccc2c(c1)O[C@H](c1cc(O)cc(O)c1)[C@H](C(=O)O)O2 [CAFFEICINIC ACID]
42.6 µM | O=C1O[C@@H](c2ccc(O)c(O)c2)[C@H](C(=O)O)/C1=C\c1ccc(O)c(O)c1 [PHELLINSIN A]
